# According to US10987293B2, “Composition for skin external application” (DR. RAYMOND LABORATORIES, INC., priority 2018, dated 2021):
# System: fertilized eggs of the zebrafish
# Assay: Developmental toxicity in zebrafish
# Assay type: in vivo
# Conditions: 1, 10, 100 μg/mL; 4 hours exposure; judged 24 and 48 hours after fertilization
# Procedure: 4. Confirmation of Presence of Developmental Toxicity in Zebrafish
# In this case, a 1% DMSO aqueous solution that was a stock solution was used as the control material.
# Specifically, each of the samples was prepared at concentrations of 1, 10, and 100 μg/mL using the stock solution. After each of the samples was adjusted to these concentrations, fertilized eggs of the zebrafish were exposed to each of the samples for 4 hours. 24 hours after fertilization (20 hours after the exposure to each of the samples) and 48 hours after fertilization (44 hours after the exposure to each of the samples), it was judged whether or not the samples were toxic overall. In this case, the toxicity was evaluated based on the indicators divided into eight categories (Normal Development; Death; Coagulated Egg; Necrotic Tissue; Eye Development Alteration; Edema (Pericardial Edema); Tail Formation; and General Retardation).
# That is, it was confirmed that the serinol-based compound according to the present invention had no developmental toxicity.
compound,measurement,value
CCCCCCCCCCCCCCCC(=O)NC(CO)CO [palmitoyl serinol],developmental toxicity (development of fertilized eggs),developed normally
